In patent US10730877B2, “4-Azaindole compounds” (BRISTOL-MYERS SQUIBB COMPANY, priority 2017, dated 2020):
Where two headings read alike, the source gives them in different places.

What was measured:
human TLR7 = human TLR7 (Homo sapiens (Human), UniProt Q9NYK1); test: TLR7 inhibition reporter assay (HEK-Blue cells, SEAP reporter, gardiquimod stimulation); type: cell-based; conditions: gardiquimod 7.5 μM
human TLR8 = human TLR8 (Homo sapiens (Human), UniProt Q9NR97); test: TLR8 inhibition reporter assay (HEK-Blue cells, SEAP reporter, R848 stimulation); conditions: read-out: TLR8 IC50, R848 15.9 μM;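 further: SEAP under an IFN-β minimal promoter carrying five NF-κB and AP-1 sites, 22 h at 37 °C, doses 0.05 nM–50 µM, inhibition scaled between agonist-plus-DMSO and reference-inhibitor wells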
human TLR8, sequence (Q9NR97 27-1041): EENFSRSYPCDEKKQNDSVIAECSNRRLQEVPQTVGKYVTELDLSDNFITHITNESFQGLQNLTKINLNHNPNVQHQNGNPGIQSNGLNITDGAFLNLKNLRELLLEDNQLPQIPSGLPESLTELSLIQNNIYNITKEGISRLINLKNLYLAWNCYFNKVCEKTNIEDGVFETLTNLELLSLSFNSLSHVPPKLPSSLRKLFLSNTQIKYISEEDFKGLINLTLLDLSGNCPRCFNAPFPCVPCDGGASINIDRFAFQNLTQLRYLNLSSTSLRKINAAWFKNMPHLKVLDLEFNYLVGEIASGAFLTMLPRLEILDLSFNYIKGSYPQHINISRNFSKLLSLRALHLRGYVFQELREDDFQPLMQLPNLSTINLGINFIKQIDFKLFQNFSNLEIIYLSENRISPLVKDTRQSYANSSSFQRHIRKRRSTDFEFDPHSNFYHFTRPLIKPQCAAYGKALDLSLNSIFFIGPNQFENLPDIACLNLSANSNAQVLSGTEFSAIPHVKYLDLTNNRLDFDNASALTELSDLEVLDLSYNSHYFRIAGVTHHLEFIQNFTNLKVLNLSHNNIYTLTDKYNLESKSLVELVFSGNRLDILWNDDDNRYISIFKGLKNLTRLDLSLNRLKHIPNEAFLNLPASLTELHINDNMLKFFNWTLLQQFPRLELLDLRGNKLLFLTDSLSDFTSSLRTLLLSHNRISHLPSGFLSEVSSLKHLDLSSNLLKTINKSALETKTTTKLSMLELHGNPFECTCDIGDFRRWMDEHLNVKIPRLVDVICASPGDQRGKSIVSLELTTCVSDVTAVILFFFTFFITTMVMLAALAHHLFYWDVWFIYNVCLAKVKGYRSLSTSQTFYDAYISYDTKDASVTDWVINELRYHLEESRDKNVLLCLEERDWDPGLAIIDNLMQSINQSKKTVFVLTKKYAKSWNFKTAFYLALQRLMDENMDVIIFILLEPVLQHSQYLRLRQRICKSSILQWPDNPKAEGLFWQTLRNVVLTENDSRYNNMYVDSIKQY

human TLR9 = human TLR9 (Homo sapiens (Human), UniProt Q9NR96); test: TLR9 inhibition reporter assay (HEK-Blue cells, SEAP reporter, ODN2006 stimulation);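 further: SEAP driven by IFN-β minimal promoter with five NF-κB and AP-1 sites, compounds 0.05 nM–50 µM in DMSO, 22 h, inhibition scaled between agonist plus DMSO and reference inhibitor wells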
human TLR9, sequence (Q9NR96 26-1032): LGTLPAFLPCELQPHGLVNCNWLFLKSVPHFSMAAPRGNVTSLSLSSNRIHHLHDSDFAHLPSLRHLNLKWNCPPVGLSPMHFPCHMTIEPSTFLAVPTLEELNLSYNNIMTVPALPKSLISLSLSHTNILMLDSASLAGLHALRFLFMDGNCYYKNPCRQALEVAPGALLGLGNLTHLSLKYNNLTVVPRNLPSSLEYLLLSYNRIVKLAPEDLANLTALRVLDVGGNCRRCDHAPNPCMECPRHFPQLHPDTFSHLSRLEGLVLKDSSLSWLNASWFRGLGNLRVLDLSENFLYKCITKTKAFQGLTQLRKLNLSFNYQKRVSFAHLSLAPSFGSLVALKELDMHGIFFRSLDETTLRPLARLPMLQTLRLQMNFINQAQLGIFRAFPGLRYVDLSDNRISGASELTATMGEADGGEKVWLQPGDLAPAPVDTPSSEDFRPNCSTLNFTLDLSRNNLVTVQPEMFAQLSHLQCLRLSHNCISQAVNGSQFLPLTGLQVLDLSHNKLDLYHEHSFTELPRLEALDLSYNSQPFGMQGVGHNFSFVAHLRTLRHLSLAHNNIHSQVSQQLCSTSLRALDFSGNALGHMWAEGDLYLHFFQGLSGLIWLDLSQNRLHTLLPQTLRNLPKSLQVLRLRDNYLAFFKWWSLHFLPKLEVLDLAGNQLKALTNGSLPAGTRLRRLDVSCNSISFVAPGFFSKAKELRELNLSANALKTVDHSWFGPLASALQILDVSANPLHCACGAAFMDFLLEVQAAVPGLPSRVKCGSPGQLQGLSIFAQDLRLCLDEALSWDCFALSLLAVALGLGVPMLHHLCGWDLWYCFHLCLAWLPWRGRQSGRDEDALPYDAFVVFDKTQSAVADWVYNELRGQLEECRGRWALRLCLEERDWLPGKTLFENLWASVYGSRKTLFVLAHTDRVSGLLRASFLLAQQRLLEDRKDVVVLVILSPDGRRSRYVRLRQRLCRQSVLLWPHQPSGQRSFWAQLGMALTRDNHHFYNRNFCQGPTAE

[1] = HEK-Blue cells overexpressing human TLR7, SEAP reporter
[2] = HEK-Blue cells overexpressing human TLR8, SEAP reporter
[3] = read-out: TLR9 IC50, HEK-Blue cells overexpressing human TLR9, SEAP reporter, ODN2006 5 nM
[4] = read-out: TLR9 IC50, HEK-Blue cells, ODN2006 5 nM

human TLR7, sequence (Q9NYK1 27-1049): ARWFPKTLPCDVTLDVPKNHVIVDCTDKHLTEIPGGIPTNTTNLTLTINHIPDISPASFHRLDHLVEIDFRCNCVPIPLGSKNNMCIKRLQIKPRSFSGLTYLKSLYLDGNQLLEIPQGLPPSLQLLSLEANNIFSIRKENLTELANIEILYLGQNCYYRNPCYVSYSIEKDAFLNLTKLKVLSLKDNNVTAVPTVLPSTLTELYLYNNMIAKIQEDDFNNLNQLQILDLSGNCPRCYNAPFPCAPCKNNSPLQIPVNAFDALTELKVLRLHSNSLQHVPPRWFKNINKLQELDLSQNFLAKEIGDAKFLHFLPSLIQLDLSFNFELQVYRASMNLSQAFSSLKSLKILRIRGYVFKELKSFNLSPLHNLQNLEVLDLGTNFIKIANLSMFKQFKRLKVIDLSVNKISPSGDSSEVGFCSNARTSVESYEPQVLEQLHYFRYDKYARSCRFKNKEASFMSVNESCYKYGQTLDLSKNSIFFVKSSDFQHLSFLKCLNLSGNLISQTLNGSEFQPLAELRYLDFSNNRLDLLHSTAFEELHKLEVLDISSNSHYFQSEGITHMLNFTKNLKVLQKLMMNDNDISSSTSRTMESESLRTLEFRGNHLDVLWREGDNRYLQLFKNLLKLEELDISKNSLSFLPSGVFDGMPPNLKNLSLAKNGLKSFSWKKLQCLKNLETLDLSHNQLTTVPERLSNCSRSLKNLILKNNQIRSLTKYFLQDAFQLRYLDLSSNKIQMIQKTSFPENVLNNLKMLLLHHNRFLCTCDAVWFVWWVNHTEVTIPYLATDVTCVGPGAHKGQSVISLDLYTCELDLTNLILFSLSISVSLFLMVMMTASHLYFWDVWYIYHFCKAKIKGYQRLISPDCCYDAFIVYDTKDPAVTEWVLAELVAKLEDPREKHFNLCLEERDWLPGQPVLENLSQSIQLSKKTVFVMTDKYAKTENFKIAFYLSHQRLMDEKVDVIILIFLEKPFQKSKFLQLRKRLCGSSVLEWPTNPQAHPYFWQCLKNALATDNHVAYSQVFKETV

IC50 (human TLR7; [1])	IC50 (human TLR8; [2])	IC50 (human TLR9; [3])	IC50 (human TLR9)	IC50 (human TLR7; HEK-Blue cells)	IC50 (human TLR8; HEK-Blue cells)	IC50 (human TLR9; [4])	SMILES
3.8 nM	8.6 nM	18300 nM					Cc1c(-c2[nH]c3ccc(N4C[C@H]5C[C@@H]4CN5CC(N)=O)nc3c2C(C)C)cn2ncnc2c1C [Example 762]
3.8 nM	2.6 nM	4580 nM					Cc1c(-c2[nH]c3ccc(N4C[C@H]5C[C@@H]4CN5CCC(N)=O)nc3c2C(C)C)cn2ncnc2c1C [Example 763]
1.9 nM	2.8 nM	14400 nM					Cc1c(-c2[nH]c3ccc(N4C[C@H]5C[C@@H]4CN5CCS(C)(=O)=O)nc3c2C(C)C)cn2ncnc2c1C [Example 764]
5.6 nM	3.5 nM	10300 nM					Cc1c(-c2[nH]c3ccc(N4C[C@H]5C[C@@H]4CN5CCCS(C)(=O)=O)nc3c2C(C)C)cn2ncnc2c1C [Example 765]
0.86 nM	1.2 nM	3510 nM					Cc1c(-c2[nH]c3ccc(N4C[C@H]5C[C@@H]4CN5CC#N)nc3c2C(C)C)cn2ncnc2c1C [Example 766]
5.4 nM	2.9 nM	8300 nM					Cc1c(-c2[nH]c3ccc(N4C[C@H]5C[C@@H]4CN5CCC(=O)N(C)C)nc3c2C(C)C)cn2ncnc2c1C [Example 767]
6.4 nM	9.6 nM	21000 nM					Cc1c(-c2[nH]c3ccc(N4C[C@H]5C[C@@H]4CN5C4COC4)nc3c2C(C)C)cn2ncnc2c1C [Example 768]
3 nM	4.6 nM	2710 nM					Cc1c(-c2[nH]c3ccc(N4C[C@H]5C[C@@H]4CN5C(=O)CCN(C)C)nc3c2C(C)C)cn2ncnc2c1C [Example 773]
3.7 nM	5.7 nM	18600 nM					Cc1c(-c2[nH]c3ccc(N4C[C@@H]5C[C@H]4CN5CC(N)=O)nc3c2C(C)C)cn2ncnc2c1C [Example 774]
3.8 nM	4.4 nM	8450 nM					Cc1c(-c2[nH]c3ccc(N4C[C@@H]5C[C@H]4CN5CCC(N)=O)nc3c2C(C)C)cn2ncnc2c1C [Example 775]
6 nM	5.3 nM	13100 nM					Cc1c(-c2[nH]c3ccc(N4C[C@@H]5C[C@H]4CN5CCC(=O)N(C)C)nc3c2C(C)C)cn2ncnc2c1C [Example 776]
9.2 nM	7.4 nM	14800 nM					Cc1c(-c2[nH]c3ccc(N4C[C@@H]5C[C@H]4CN5CCS(C)(=O)=O)nc3c2C(C)C)cn2ncnc2c1C [Example 777]
2.7 nM	2.3 nM	7910 nM					Cc1c(-c2[nH]c3ccc(N4C[C@@H]5C[C@H]4CN5CCCS(C)(=O)=O)nc3c2C(C)C)cn2ncnc2c1C [Example 778]
7.3 nM	11 nM	34500 nM					Cc1c(-c2[nH]c3ccc(N4C[C@@H]5C[C@H]4CN5C4COC4)nc3c2C(C)C)cn2ncnc2c1C [Example 779]
1.8 nM	3.9 nM	8380 nM					Cc1c(-c2[nH]c3ccc(N4C[C@@H]5C[C@H]4CN5C(C)C)nc3c2C(C)C)cn2ncnc2c1C [Example 783]
2.9 nM	9.4 nM	4530 nM					Cc1c(-c2[nH]c3ccc(N4C[C@@H]5C[C@H]4CN5C(=O)CN(C)C)nc3c2C(C)C)cn2ncnc2c1C [Example 784]
8 nM	13 nM	4680 nM					Cc1c(-c2[nH]c3ccc(N4C[C@@H]5C[C@H]4CN5C(=O)CCN(C)C)nc3c2C(C)C)cn2ncnc2c1C [Example 785]
7.7 nM	12 nM	14700 nM					Cc1c(-c2[nH]c3ccc(N4C[C@H]5C[C@@H]4CN5C(C)C)nc3c2C(C)C)cn2ncnc2c1C [Example 786]
9.4 nM	4.9 nM	12300 nM					Cc1c(-c2[nH]c3ccc(N4C[C@@H]5C[C@H]4CN5Cc4cn(C)nn4)nc3c2C(C)C)cn2ncnc2c1C [Example 787]

Continued, compound first:

SMILES	IC50 (human TLR7; [1])	IC50 (human TLR8; [2])	IC50 (human TLR9; [3])	IC50 (human TLR9)	IC50 (human TLR7; HEK-Blue cells)	IC50 (human TLR8; HEK-Blue cells)	IC50 (human TLR9; [4])
Cc1c(-c2[nH]c3ccc(N4CCC(N(C)Cc5ncccn5)CC4)nc3c2C(C)C)cn2cnnc2c1C [Example 78]	3.7 nM	10 nM	3170 nM				
CC(C)c1c(-c2cn(CCS(C)(=O)=O)c3ncccc23)[nH]c2ccc(C3CCC(NC4CCOCC4)CC3)nc12 (centres unmarked) [Example 271]	120 nM	40 nM	228 nM				
CC(C)c1c(-c2cn(CC#N)c3ncccc23)[nH]c2ccc(C3CCC(NC4CCOCC4)CC3)nc12 (centres unmarked) [Example 274]	8.5 nM	3.7 nM	474 nM				
CCN(CCS(C)(=O)=O)C1CCC(c2ccc3[nH]c(-c4cn5ncnc5c(C)c4C)c(C(C)C)c3n2)CC1 (centres unmarked) [Example 460]	0.88 nM	0.79 nM	2060 nM				
Cc1cc(-c2[nH]c3ccc(C4CCN(CC(N)=O)CC4)nc3c2C(C)C)cn2ncnc12 [Example 559]	0.72 nM	4.6 nM	4920 nM				
CCCN(CCC)C1CCC(Oc2ccc3[nH]c(-c4cc(OC)c5ncnn5c4)c(C(C)C)c3n2)CC1 (centres unmarked) [Example 605, 4-((3-isopropyl-2-(8-methoxy-[1,2,4]triazolo[1,5-a]pyridin-6-yl)-1H-pyrrolo[3,2-b]pyridin-5-yl)oxy)-N,N-dipropylcyclohexan-1-amine]	13 nM			4240 nM			
COc1cc(-c2[nH]c3ccc(CCC4CN(Cc5c[nH]nn5)C4)nc3c2C(C)C)cn2ncnc12 [Example 688]	8.4 nM	23 nM	177 nM				
Cc1c(-c2[nH]c3ccc(N4[C@@H]5CC[C@H]4CN(CCC(N)=O)C5)nc3c2C(C)C)cn2ncnc2c1C [Example 749]	2.9 nM	2.6 nM	14900 nM				
Cc1c(-c2[nH]c3ccc(N4C[C@H]5CCC[C@@H](C4)N5C(=O)CN(C)C)nc3c2C(C)C)cn2ncnc2c1C [Example 750]	1.2 nM	3.7 nM	6140 nM				
Cc1c(-c2[nH]c3ccc(N4C[C@H]5CCC[C@@H](C4)N5CCS(C)(=O)=O)nc3c2C(C)C)cn2ncnc2c1C [Example 751]	13 nM	7.3 nM	26000 nM				
Cc1c(-c2[nH]c3ccc(N4C[C@H]5C[C@@H]4CN5C4CCS(=O)(=O)CC4)nc3c2C(C)C)cn2ncnc2c1C [Example 770]	11 nM	24 nM	18200 nM				
Cc1c(-c2[nH]c3ccc(N4C[C@@H]5C[C@H]4CN5C4CCOCC4)nc3c2C(C)C)cn2ncnc2c1C [Example 780]	1.9 nM	5.4 nM	5220 nM				
Cc1c(-c2[nH]c3ccc(N4C[C@@H]5C[C@H]4CN5C4CCS(=O)(=O)CC4)nc3c2C(C)C)cn2ncnc2c1C [Example 781]	11 nM	18 nM	14400 nM				
Cc1c(-c2[nH]c3ccc(N4C[C@@H](C)N(CCCS(C)(=O)=O)C[C@@H]4C)nc3c2C(C)C)cn2ncnc2c1C [Example 846]					0.55 nM	1.2 nM	22600 nM
Cc1c(-c2[nH]c3ccc(N4CCN(C(=O)CN(C)C)[C@H](C)C4)nc3c2C(C)C)cn2ncnc2c1C [Example 849]					0.53 nM	1.6 nM	8120 nM
Cc1c(-c2[nH]c3ccc(C4CC5(C4)CN(C)C5)nc3c2C(C)C)cn2ncnc2c1C [Example 1022]					0.91 nM	1.9 nM	3650 nM
Cc1c(-c2[nH]c3ccc(C4CC5(C4)CN(C(C)C)C5)nc3c2C(C)C)cn2ncnc2c1C [Example 1023]					10 nM	3.6 nM	6940 nM
